This note sets out measurements from US6562803B2, “Hair-growing agent” (Kyowa Hakko Kogyo Co., Ltd., priority 2001, dated 2003).

In this test the test system is mouse hair follicle epithelial cells. The experiment in a line: Cell growth-promoting effect on cultured mouse hair follicle epithelial cells (MTT). Format: cell-based. The note with it: cultured 5 days, absorbance at 570 nm, control DMSO alone = 100.

Protocol: The skin on the back of a 4-days-old C3H mouse (Charles River Japan, Inc.) was cut off and treated with MEM (Eagle's Minimum Essential Medium) containing 500 units/ml Dispase (Godo Shusei Co., Ltd.) and 5% fetal calf serum (FCS) at 4° C. for 16 hours.
The dermis suspension was filtered through a 212-μm nylon mesh (Nippon Rikagaku Kikai Co., Ltd.) and the filtrate was centrifuged at 1000 rpm for 5 minutes to obtain pellets containing hair follicle tissue. To the pellets was added calcium/magnesium-free PBS (Dulbecco's Phosphate-Buffered Saline) and the pellets were suspended therein using a pipette. The resulting suspension was allowed to stand for 15 minutes to precipitate hair follicle tissue. The same procedure as above (addition of calcium/magnesium-free PBS, suspending by use of a pipette, and precipitation by allowing the suspension to stand for 15 minutes) was repeated three times using the obtained hair follicle tissue.
To the resulting mixture was added DMEM containing 10% FCS to prepare a hair follicle tissue cell suspension having a density of 3×10^5 cells/ml. The hair follicle tissue cell suspension was put into wells of a 24-well collagen-coated plate (Iwaki Glass Co., Ltd.) in an amount of 1 ml/well, followed by culturing in 5% CO2 at 37° C. for 24 hours.
During the culturing, the medium was replaced with a fresh one every other day.
The degree of cell growth was measured according to the method using MTT [3-(4,5-dimethylthiazol-2-yl)-2,5-diphenyl tetrazolium bromide]
To each well of the 24-well microplate (2 cm^2/well) was added a PBS solution of MTT (5 mg/ml) in an amount of 1/10 by volume based on 1 ml of the culture. The plate was shaken to make the mixture homogeneous, followed by culturing in 5% CO2 at 37° C. for 4 hours. Four hours later, the culture was sucked and 1 ml of a 0.04 mol/l solution of HCl in isopropyl alcohol was added to each well to completely dissolve formazan formed in the wells.
The degree of cell growth was determined by measuring the absorbance at 570 nm based on that at 650 nm as a control.

Take `CCCCCCCC/C=C\CCCCCCCC(=O)OCC(COP(=O)(O)O)OC(C)=O` (stereo not drawn) [1-O-oleoyl-2-O-acetylglyceryl-3-phosphoric Acid]: the “Relative cell growth rate based on the control as 100” value (shortened to “Relative cell growth rate based”) (1 μmol/l) worked out at 327.

Take `Oc1cc(O)c2c(c1)O[C@H](c1ccc(O)c(O)c1)[C@H](O)[C@H]2c1c(O)cc(O)c2c1O[C@H](c1ccc(O)c(O)c1)[C@H](O)C2` [Procyanidin B-2, epicatechin-(4β→8)-epicatechin]: the “Relative cell growth rate based” value (30 μmol/l) amounted to 295.

For the molecule `Cc1c(C)c2c(c(C)c1O)CCC(C)(CCCC(C)CCCC(C)CCCC(C)C)O2` (racemic) [dl-α-Tocopherol, dl-α-tocopherol], the “Relative cell growth rate based” value (30 μmol/l) is reported as 178.
